For one experiment, the target named is T1, Tyrosinase (Agaricus bisporus, UniProt O42713).
T1 sequence (O42713 whole entry): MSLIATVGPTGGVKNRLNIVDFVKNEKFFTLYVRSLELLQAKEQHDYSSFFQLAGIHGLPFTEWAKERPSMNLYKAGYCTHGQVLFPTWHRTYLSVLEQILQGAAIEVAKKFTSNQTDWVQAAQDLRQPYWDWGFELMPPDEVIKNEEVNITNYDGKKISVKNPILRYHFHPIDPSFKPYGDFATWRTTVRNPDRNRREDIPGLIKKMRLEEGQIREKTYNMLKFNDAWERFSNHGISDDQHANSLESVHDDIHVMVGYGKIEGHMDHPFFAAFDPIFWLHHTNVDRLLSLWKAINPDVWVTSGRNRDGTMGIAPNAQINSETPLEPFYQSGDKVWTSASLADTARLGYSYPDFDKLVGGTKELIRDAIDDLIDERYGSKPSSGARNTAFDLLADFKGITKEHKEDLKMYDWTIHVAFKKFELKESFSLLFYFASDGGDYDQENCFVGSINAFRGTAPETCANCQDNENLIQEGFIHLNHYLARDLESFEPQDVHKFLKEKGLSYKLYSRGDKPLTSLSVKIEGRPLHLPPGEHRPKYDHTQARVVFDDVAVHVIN

For experiment [1], the target named is T2, Tyrosinase (Agaricus bisporus) (UniProt O42713).
T2 sequence (whole entry): T1 sequence (O42713 whole entry)
The experiment is described as follows: Inhibition of mushroom tyrosinase at 1 mM using L-tyrosine as a substrate after 30 mins by spectrophotometric method.

Molecules are shown by their SMILES. Active and inactive are the calls of the source. The calls are words filed in the database; no cut-off is given here.

The term IC50 denotes the concentration that inhibits the measured activity by half. High values mean lower potency, low ones higher potency. In turn, `CCCCCCCCC(=O)N/C(=C\c1ccc(O)cc1)C(=O)O` returned an IC50 against Tyrosinase of 280 µM.
Take `CCCCCCCCCC(=O)N/C(=C\c1ccc(O)cc1)C(=O)O`: on Tyrosinase, half-maximal inhibition (IC50) was put at 130 µM.
As to `CC(C)CCCCCCC(=O)N/C(=C\c1ccc(O)cc1)C(=O)O`, the IC50 at Tyrosinase came out at 470 µM.
As for `CC(C)CCCCCCC(=O)N/C(=C\c1ccc(O)cc1)C(N)=O`, the inhibition result in experiment [1] was “inactive”.
As to `CCCCCCCCCC(=O)N/C(=C\c1ccc(O)cc1)C(N)=O`, in experiment [1], the inhibition result is “inactive”.

The values are drawn from ChEMBL document CHEMBL3804831, “N-Acyl Dehydrotyrosines, Tyrosinase Inhibitors from the Marine Bacterium Thalassotalea sp. PP2-459” (J Nat Prod, 2016).
